Results taken from patent US20070212428A1, “METHODS AND COMPOSITIONS FOR TREATING MOOD DISORDER” (MOOD MANAGEMENT SCIENCES, INC., priority 2004, published 2007).
Structures can show the parent of a compound that is named as a salt.

Columns and labels:
[1] = tested on: norepinephrine neuronal reuptake; details: cited from earlier work
[2] = tested on: GABA uptake or degradation; details: cited from earlier work
[3] = tested on: dopamine neuronal reuptake; details: cited from earlier work
GABAA or GABAB = details: cited from earlier work
monoamine oxidase = details: cited from earlier work
[4] = cited from earlier work; for elimination half-life: plasma; for oral absorption (in words): oral administration; for time to peak plasma concentration: after oral dosing; for time to steady state plasma concentrations: repeated dosing
[5] = tested on: treatment resistant depression; assay: Example 11: case, treatment resistant depression; format: in vivo, human; details: under prior psychiatrist
[6] = tested on: serotonin 5-HT2 and 5-HT3 receptors; details: cited from earlier work
[7] = tested on: central presynaptic a2 adrenergic inhibitory autoreceptors and heteroreceptors; details: cited from earlier work
histamine H1 receptor [8] = target: T1, histamine H1 receptor (Homo sapiens, UniProt P35367); details: cited from earlier work
T1 sequence (P35367 whole entry, species assumed): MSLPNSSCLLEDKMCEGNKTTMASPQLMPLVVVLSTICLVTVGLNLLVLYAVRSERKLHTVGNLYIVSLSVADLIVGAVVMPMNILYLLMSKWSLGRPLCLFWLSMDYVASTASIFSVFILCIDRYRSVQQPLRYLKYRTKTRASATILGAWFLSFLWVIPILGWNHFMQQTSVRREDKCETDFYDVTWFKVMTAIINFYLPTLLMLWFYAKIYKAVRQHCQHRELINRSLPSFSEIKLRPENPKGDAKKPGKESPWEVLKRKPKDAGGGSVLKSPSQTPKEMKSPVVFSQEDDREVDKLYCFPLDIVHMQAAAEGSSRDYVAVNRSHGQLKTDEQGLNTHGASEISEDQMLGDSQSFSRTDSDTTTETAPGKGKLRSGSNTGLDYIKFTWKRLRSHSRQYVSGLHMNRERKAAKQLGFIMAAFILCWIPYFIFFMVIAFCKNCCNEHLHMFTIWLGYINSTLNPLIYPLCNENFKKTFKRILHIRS

[9] = tested on: peripheral al adrenergic and muscarinic receptors; details: cited from earlier work
[10] = tested on: 5-HT1A and 5-HT1B receptors; details: cited from earlier work
[11] = target: serotonin 5-HT2A receptor (Homo sapiens, UniProt P28223); details: cited from earlier work
Chain of serotonin 5-HT2A receptor (P28223 whole entry): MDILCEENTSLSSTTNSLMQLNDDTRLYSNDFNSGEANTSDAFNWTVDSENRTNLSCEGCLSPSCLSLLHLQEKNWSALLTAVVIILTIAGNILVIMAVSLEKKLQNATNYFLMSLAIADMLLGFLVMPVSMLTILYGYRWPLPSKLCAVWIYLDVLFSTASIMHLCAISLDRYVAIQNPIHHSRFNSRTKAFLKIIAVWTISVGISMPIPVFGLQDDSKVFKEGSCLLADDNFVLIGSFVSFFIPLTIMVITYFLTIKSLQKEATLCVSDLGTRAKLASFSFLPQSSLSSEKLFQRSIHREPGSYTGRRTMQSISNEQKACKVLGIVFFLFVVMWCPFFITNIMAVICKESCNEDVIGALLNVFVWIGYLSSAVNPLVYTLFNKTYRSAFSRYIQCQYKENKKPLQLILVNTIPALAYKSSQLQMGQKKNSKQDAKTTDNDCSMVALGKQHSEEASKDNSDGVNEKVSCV

[12] = cited from earlier work
[13] = tested on: cholinergic muscarinic receptors; details: cited from earlier work
serotonin reuptake site = serotonin reuptake site (Homo sapiens, UniProt P31645); details: cited from earlier work
Chain of serotonin reuptake site (P31645 whole entry): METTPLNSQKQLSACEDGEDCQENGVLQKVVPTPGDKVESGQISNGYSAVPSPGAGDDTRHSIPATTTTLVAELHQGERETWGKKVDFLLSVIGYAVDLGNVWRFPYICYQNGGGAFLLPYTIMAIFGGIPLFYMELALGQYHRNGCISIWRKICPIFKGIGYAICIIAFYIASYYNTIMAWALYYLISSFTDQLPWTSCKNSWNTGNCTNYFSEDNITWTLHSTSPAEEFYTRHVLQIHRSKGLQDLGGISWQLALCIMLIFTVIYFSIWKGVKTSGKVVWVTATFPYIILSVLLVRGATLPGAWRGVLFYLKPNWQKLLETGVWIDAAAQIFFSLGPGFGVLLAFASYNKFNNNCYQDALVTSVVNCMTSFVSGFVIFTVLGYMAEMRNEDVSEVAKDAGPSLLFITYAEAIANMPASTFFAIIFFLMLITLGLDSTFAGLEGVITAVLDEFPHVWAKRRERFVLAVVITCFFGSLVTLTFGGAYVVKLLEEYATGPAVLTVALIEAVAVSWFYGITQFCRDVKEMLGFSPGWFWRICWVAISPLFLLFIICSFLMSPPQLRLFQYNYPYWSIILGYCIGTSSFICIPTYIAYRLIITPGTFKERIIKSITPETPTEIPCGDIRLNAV

bipolar I patients = details: cited from earlier work
status epilepticus = details: add-on therapy with other anti-epileptic drugs; cited from earlier work
[14] = tested on: GABAA, BZD, and β adrenergic receptors; details: cited from earlier work
anxiety and depression = details: human, in vivo; cited from earlier work
[15] = tested on: cholinergic, muscarinic, and benzodiazepine receptors; details: cited from earlier work
[16] = tested on: dopamine D1 and haloperidol-sensitive sigma site; details: cited from earlier work
[17] = tested on: serotonin 5-HT1C, 5-HT1D and 5-HT1A receptors; details: cited from earlier work
[18] = tested on: cholinergic muscarinic or β1 and β2 adrenergic receptors; details: cited from earlier work
[19] = tested on: treatment resistant depression; format: in vivo, human; details: 150 mg titrated up to 225 mg
[20] = tested on: uptake of glutamate, or choline; details: cited from earlier work
[21] = tested on: dopamine D1 and D2, muscarinic, serotonin 5HT1A, 5HT2, 5HT3, β-1 and 2 adrenergic, α-1 and α-2 adrenergic, histamine H2 and H3, adenosine A1 and A2, opiate μ …; details: cited from earlier work
[22] = tested on: neuronal serotonin reuptake; details: cited from earlier work
[23] = tested on: histamine H1, serotonin 5HT1B, benzodiazepine, and chloride channel receptors; details: cited from earlier work
histamine H1 receptor [24] = target: T1, histamine H1 receptor; details: cited from earlier work; remark: listed apart in the source
[25] = tested on: other receptor/binding sites tested, including the cholinergic muscarinic receptor; details: cited from earlier work
5-HT1A receptor = 5-HT1A receptor (Homo sapiens, UniProt P08908); details: cited from earlier work
Chain of 5-HT1A receptor (P08908 whole entry): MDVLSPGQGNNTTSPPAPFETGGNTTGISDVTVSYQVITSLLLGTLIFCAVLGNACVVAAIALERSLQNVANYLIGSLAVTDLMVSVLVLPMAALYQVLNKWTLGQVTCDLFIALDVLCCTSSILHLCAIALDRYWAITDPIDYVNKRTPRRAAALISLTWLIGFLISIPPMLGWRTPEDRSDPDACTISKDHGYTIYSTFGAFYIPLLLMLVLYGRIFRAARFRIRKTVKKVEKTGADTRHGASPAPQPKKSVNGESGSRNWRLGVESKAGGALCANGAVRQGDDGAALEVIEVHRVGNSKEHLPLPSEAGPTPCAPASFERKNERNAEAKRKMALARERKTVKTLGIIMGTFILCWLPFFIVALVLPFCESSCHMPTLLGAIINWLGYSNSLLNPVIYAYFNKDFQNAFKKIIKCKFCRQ

[26] = tested on: D2, 5-HT2A, and 5-HT1D receptors; details: cited from earlier work
[27] = tested on: dopamine D2 and D3, serotonin 5-HT2A, 5-HT2C, 5-HT1D and α-adrenergic receptors; details: cited from earlier work
[28] = maintenance treatment over eighteen months
[29] = quetiapine fumarate (150 mg BID) and divalproex (500 mg BID)

Molecule: 1-(aminoethyl)cyclohexaneacetic acid [gabapentin]
- effect on norepinephrine reuptake (in words) [1]: does not alter
- inhibition of GABA uptake or degradation [2]: not an inhibitor
- effect on dopamine reuptake (in words) [3]: does not alter
- effect on radioligand binding (GABAA or GABAB): does not modify

Molecule: CC(NC(C)(C)C)C(=O)c1cccc(Cl)c1.Cl (racemic) [bupropion, (±)-1-(3-chlorophenyl)-2-[(1,1-dimethylethyl)amino]-1-propanone hydrochloride]
- effect on norepinephrine reuptake (in words) [1]: relatively weak inhibitor
- inhibition of monoamine oxidase (monoamine oxidase): does not inhibit
- effect on dopamine reuptake (in words) [3]: relatively weak inhibitor
- elimination half-life [4]: approximately 21 hours
- symptomatic success in MDD, first episode [5]: modest symptomatic success

Molecule: CN1CCN2c3ncccc3Cc3ccccc3C2C1 (racemic) [mirtazapine, 1,2,3,4,10,14b-hexahydro-2-mehtylpryazino [2.1-a] pyrido [2,3-c] benzazepine]
- functional activity [6]: potent antagonist
- functional activity [7]: antagonist
- functional activity (histamine H1 receptor [8]): potent antagonist
- functional activity [9]: moderate antagonist
- affinity [10]: no significant affinity

Molecule: O=C1CCc2ccc(OCCCCN3CCN(c4cccc(Cl)c4Cl)CC3)cc2N1 [aripiprazole, 7-[4-[4-(2,3-dichlorophenyl)-1-piperazinyl]butoxy]-3,4-dihydrocarbostyril]
- functional activity [11]: antagonist
- pharmacokinetics ([12]; lithium (1200-1800 mg/day) for 21 days with aripiprazole (30 mg/day)): did not result in clinically significant changes
- oral absorption (in words) [4]: well absorbed
- affinity [13]: no appreciable affinity
- affinity (serotonin reuptake site): moderate affinity

Molecule: Nc1nnc(-c2cccc(Cl)c2Cl)c(N)n1 [lamotrigine, 3,5-diamino-6-(2,3-dichlorophenyl)-1,2,4-triazine]
- delay of time to occurrence of a mood episode (bipolar I patients; approximately 200 mg/day, ranging from 100 mg/day to 400 mg/day): effective in delaying the time to occurrence of a mood episode
- mood pole against which predominantly effective (bipolar I patients; [28]): predominantly effective against depression
- prevention of mood episodes compared with placebo (bipolar I patients; [28]): superior to placebo
- plasma concentration generally effective in controlling SE (status epilepticus): about 24 μg/ml

Molecule: Cc1cc2c(s1)Nc1ccccc1N=C2N1CCN(C)CC1 [olanzapine, 2-methyl-4-(4-methyl-1-piperazinyl)-10H-thieno[2,3-b][1,5]benzodiazepine]
- binding [14]: binds weakly

Molecule: CNCCCC1c2ccccc2C=Cc2ccccc21.Cl [protriptyline, N-methyl-5H-dibenzo[a,d]-cycloheptene-5-propanamine hydrochloride]
- time to clinical effect (anxiety and depression): one week
- time to significant plasma levels ([4]; human, in vivo): ≤ 2 h
- oral absorption (in words) [4]: well absorbed

Molecule: OCCOCCN1CCN(C2=Nc3ccccc3Sc3ccccc32)CC1 [quetiapine, 5-[2-(4-dibenzo[b,f][1,4]thiazepin-11-yl-1-piperazinyl)ethoxy]ethanol fumarate]
- affinity [15]: no appreciable affinity
- extent of absorption or mean oral clearance [12, 29]: without affecting
- increase of mean maximum plasma concentration at steady state [12, 29]: 17%
- steady-state pharmacokinetics ([12]; quetiapine fumarate (300 mg BID) with fluoxetine (60 mg once daily), haloperidol (7.5 mg BID) or risperidone (3 mg BID)): did not alter
- time to peak plasma concentration [4]: 1.5 h
- elimination half-life [4]: about 6 hours
- time to steady state plasma concentrations [4]: two

Molecule: Cc1nc2n(c(=O)c1CCN1CCC(c3noc4cc(F)ccc34)CC1)CCCC2 [risperidone, 3-[2-[4-(6-fluoro-1,2-benzisoxazol-3-yl)piperidino]ethyl]-2-methyl-6,7,8,9-tetrahydro-4H-pyrido-[1,2-a]pyrimidin-4-one]
- affinity [16]: weak affinity
- affinity [17]: low to moderate affinity
- affinity [18]: no affinity

Molecule: CN[C@H]1CC[C@@H](c2ccc(Cl)c(Cl)c2)c2ccccc21.Cl [sertraline, (1S-cis)-4-(3,4-dichlorophenyl)-1,2,3,4-tetrahydro-N-methyl-1-naphthylamine hydrochloride]
- effect on norepinephrine reuptake (in words) [1]: weak effects
- effect on dopamine reuptake (in words) [3]: weak effects
- reduction of elimination in elderly patients ([4]; elderly patients): approximately 40%
- elimination half-life [4]: about 26 hours
- response of first episode of Treatment Resistant Depression [19]: partial response

Molecule: Cc1ccsc1C(=CCCN1CCC[C@@H](C(=O)O)C1)c1sccc1C [tiagabine, (−)-®-1-[4,4-Bis(3-methyl-2-thienyl)-3-butenyl]nipecotic acid hydrochloride]
- effect on norepinephrine reuptake (in words) [1]: does not significantly inhibit
- inhibition of uptake of glutamate or choline [20]: does not significantly inhibit
- effect on dopamine reuptake (in words) [3]: does not significantly inhibit
- binding [21]: little or no binding
- time to peak plasma concentration [4]: approximately 45 minutes
- fraction excreted in the feces ([4]; as metabolites): 63%
- fraction excreted renally ([4]; as metabolites): 25%
- fraction excreted unchanged ([4]; human, in vivo): 2%
- oral absorption (in words) [4]: rapid
- inhibition of serotonin reuptake (in words) [22]: does not significantly inhibit
- binding [23]: at concentrations greatly exceeding that is needed to inhibit the uptake of GABA

Molecule: O=C1Cc2cc(CCN3CCN(c4nsc5ccccc45)CC3)c(Cl)cc2N1 [ziprasidone, 5-[2-[4-(1,2-benzoisothiazol-3-yl)-1-piperazinyl]ethyl]-6-chloro-1,3-dihydro-2H-indol-2-one]
- effect on norepinephrine reuptake (in words) [1]: inhibited
- in vitro binding affinity (histamine H1 receptor [24]): moderate affinity
- affinity [25]: No appreciable affinity
- functional activity (5-HT1A receptor): agonist
- functional activity [26]: antagonist
- elimination half-life [4]: about 7 hours
- time to steady state plasma concentrations [4]: one to three
- inhibition of serotonin reuptake (in words) [22]: inhibited
- in vitro binding affinity [27]: high in vitro binding affinity
